Measured values: patent US20240294467A1, “USP9X Inhibitors” (ProDeg, LLC, priority 2021, published 2024)
Like-named read-outs stand apart in the source and are kept apart here.

Legend:
[1] = biological target: T1, USP9X (Homo sapiens (Human), UniProt Q93008); experiment: USP9X enzyme activity assay, ubiquitin-rhodamine110 substrate
[2] = biological target: T1, USP9X; experiment: Steady-state enzyme inhibition kinetics of USP9X; format: biochemical
Text: The data were fit to a general model for enzyme inhibition (FIG. 1E) so the values of the parameters determined from the assays specified the mode of inhibition. For example, in the case of α=1 and β=0, it corresponded to purely non-competitive inhibition. For α=infinity and p=1, it corresponded to purely competitive inhibition. The values of all the parameters, KS, KI, kcat, α, and β could be determined from the steady state measurements. The enzyme reactions were set up as described in the Inhibiting the catalytic activity of USP9X section. The concentration of the substrate ubqiutin-rhodamine110 was varied. The initial rates of the reactions were determined at several concentrations of the inhibitor Compound 2A. In order to determine the values of the parameters KS and kcat, the reaction rates in the absence of the inhibitor Compound 2A, the initial reaction rate data were fit to the standard Michaelis-Menten equation v=Vmax [S]/(Km+[S]). The values of α and β could then be determined by fitting the initial rate data of the enzyme reaction at various concentrations of Compound 2A to a modified version of the Michaelis-Menten equation, designating both Vmax and KS apparent to distinguish the apparent values of the parameters determined from these plots to the true values for these parameters determined from the steady state kinetics in the absence of Compound 2A. The values of α and β could be determined from the variation of the slopes and intercepts of the series of double reciprocal plots of 1/v versus 1/[S] for each concentration of Compound 2A. […] The two values determined for KI were from the two different plots.
The two values for KI were determined by two different methods for determining this parameter from the kinetic data: 1 represented a value determined from the slope of the 1/A intercept vs 1/[I] plot; 2 represented a value determined from the y intercept of the 1/A slope vs 1/[I] plot. […] Only the values of the parameters varied for the compounds.

[3] = test system: Mcl-1; experiment: Western blot of Mcl-1 in U937 cells; format: cell-based
Procedure: After 24 hours treatment with Compound 7A, U937 cells were collected by centrifugation and whole cell lysates were prepared. These lysates were analyzed by Western blot to determine the level of Mcl-1. Western blot analysis was carried out as previously described (Wang et al., 2014 Journal of the American Society of Nephrology DOI: 10.1681/asn.2013060665). The band intensity for Mcl-1 in these samples were normalized to that of tubulin to correct for any inconsistencies in total protein in loading and processing the whole cell lysates.
To investigate the mechanism of action, Western blot analysis was carried out to test the induced degradation of USP9X substrate Mcl-1 by the compounds under the effects of protein synthesis inhibitor cycloheximide and/or proteasome inhibitor MG132. U937 cells were treated with 10 μM cycloheximide for one hour, with 10 μM MG132 for one hour, with the combination of 10 μM cycloheximide and 10 μM MG132 for one hour, and with vehicle (DMSO) for one hour, respectively, prior to the treatment with Compound 5A for 24 hrs. The U937 cells were harvested after treatment and whole cell lysates were prepared. These lysates were analyzed by Western blot to determine the abundance of Mcl-1 as well as that of tubulin as a normalization control. […] The band intensity of the Mcl-1 in cells treated with cycloheximide alone (Lane 2) was reduced relative to that for tubulin. […] Global blockade of protein synthesis by cycloheximide led to a significant decrease in the expression levels, especially for short lived Mcl-1. The retention of a reduced portion of Mcl-1 indicated the immunity of this portion to proteasomal degradation. […] In contrast, the band intensity of Mcl-1 relative to that of tubulin increased upon treatment of U937 cells with the proteasome inhibitor MG132 (Lane 4). […] Together, the results of this Example are consistent with the compounds acting on the proposed mechanism that intracellular inhibition of the deubiquitylase activity of USP9X blocks its ability to rescue USP9X substrates such as Mcl-1 from proteasomal degradation. In other aspects, by varying the concentration ratios of the compound and proteasome inhibitor for treating cells, it was possible to achieve controlled degradation of a USP9X substrate so the substrate could decline to a desirable level rather than degrade entirely.

[4] = test system: MDA-MB-231 cells; experiment: WST-1 cell viability assay; format: cell-based; conditions: co-treatment of 10 μM Compound 5A
Procedure: Compound Compound 9A was tested for the ability to inhibit the proliferation of Mia-Paca-2 pancreatic cancer cells. Mia-Paca-2 and MDA-MB-231 cells were seeded into the wells of a 96 well tissue culture plate in complete medium (10% fetal calf serum) and incubated overnight at 37° C./5% CO2). The medium was exchanged for fresh medium containing varying concentrations of Compound 9A and the plate was incubated for 72 hours at 37° C./5% CO2. The viability of cells at the end of this incubation was assessed with the WST-1 reagent. To 10 ml of warm (37° C.) complete medium, 1 ml WST-1 reagent was added. The medium from the wells of the plate with the Mia-Paca-2 cells was removed and replaced with 100 μL of the WST-1 reagent in complete medium. The plate was incubated at 37 37° C./5% CO2. At timed intervals the absorbance at 450 nm was determined for each well in a UVNis plate reader. For each well the slope of the plot of the absorbance 450 nm vs time was determined. The readings were normalized to that of the wells for the untreated control and a dose-response curve was plotted. A fit to the data was made from a four parameter, variable slope program (GraphPad Prism) and the IC50 was determined.
The TNBC cell line MDA-MB-231 express high levels of Mcl-1 and USP9X in addition to Bcl-2 and Bcl-xL. MDA-MB-231 cells were treated with ABT737 for 72 hours at varying concentrations and underwent western blot analysis.

[5] = test system: BT-549; experiment: ONCOLINES Profiler proliferation; format: cell-based, human
Text: The compounds were profiled on an ONCOLINES™ Profiler (Netherlands Translational Research Center) assayed with 66 cancer cell lines to determine if they were capable of inhibiting the proliferation of these cancer cells.
To further evaluate potency of the compounds, they were compared with the USP9X inhibitor WP 1130 by screening both the compounds and WP1130 on a 66-cancer cell line panel ONCOLINES™ Profiler.

[6] = read-out: IC50 for the inhibition of USP9X activity, ubiquitin-rhodamine110 substrate
[7] = read-out: USP9X IC50 nM, Table 2
[8] = from the slope of the 1/Δ intercept vs 1/[I] plot, read-out: KI, nM (1)
[9] = from the y intercept of the 1/Δ slope vs 1/[I] plot, read-out: KI, nM (2)

T1 sequence (Q93008 whole entry): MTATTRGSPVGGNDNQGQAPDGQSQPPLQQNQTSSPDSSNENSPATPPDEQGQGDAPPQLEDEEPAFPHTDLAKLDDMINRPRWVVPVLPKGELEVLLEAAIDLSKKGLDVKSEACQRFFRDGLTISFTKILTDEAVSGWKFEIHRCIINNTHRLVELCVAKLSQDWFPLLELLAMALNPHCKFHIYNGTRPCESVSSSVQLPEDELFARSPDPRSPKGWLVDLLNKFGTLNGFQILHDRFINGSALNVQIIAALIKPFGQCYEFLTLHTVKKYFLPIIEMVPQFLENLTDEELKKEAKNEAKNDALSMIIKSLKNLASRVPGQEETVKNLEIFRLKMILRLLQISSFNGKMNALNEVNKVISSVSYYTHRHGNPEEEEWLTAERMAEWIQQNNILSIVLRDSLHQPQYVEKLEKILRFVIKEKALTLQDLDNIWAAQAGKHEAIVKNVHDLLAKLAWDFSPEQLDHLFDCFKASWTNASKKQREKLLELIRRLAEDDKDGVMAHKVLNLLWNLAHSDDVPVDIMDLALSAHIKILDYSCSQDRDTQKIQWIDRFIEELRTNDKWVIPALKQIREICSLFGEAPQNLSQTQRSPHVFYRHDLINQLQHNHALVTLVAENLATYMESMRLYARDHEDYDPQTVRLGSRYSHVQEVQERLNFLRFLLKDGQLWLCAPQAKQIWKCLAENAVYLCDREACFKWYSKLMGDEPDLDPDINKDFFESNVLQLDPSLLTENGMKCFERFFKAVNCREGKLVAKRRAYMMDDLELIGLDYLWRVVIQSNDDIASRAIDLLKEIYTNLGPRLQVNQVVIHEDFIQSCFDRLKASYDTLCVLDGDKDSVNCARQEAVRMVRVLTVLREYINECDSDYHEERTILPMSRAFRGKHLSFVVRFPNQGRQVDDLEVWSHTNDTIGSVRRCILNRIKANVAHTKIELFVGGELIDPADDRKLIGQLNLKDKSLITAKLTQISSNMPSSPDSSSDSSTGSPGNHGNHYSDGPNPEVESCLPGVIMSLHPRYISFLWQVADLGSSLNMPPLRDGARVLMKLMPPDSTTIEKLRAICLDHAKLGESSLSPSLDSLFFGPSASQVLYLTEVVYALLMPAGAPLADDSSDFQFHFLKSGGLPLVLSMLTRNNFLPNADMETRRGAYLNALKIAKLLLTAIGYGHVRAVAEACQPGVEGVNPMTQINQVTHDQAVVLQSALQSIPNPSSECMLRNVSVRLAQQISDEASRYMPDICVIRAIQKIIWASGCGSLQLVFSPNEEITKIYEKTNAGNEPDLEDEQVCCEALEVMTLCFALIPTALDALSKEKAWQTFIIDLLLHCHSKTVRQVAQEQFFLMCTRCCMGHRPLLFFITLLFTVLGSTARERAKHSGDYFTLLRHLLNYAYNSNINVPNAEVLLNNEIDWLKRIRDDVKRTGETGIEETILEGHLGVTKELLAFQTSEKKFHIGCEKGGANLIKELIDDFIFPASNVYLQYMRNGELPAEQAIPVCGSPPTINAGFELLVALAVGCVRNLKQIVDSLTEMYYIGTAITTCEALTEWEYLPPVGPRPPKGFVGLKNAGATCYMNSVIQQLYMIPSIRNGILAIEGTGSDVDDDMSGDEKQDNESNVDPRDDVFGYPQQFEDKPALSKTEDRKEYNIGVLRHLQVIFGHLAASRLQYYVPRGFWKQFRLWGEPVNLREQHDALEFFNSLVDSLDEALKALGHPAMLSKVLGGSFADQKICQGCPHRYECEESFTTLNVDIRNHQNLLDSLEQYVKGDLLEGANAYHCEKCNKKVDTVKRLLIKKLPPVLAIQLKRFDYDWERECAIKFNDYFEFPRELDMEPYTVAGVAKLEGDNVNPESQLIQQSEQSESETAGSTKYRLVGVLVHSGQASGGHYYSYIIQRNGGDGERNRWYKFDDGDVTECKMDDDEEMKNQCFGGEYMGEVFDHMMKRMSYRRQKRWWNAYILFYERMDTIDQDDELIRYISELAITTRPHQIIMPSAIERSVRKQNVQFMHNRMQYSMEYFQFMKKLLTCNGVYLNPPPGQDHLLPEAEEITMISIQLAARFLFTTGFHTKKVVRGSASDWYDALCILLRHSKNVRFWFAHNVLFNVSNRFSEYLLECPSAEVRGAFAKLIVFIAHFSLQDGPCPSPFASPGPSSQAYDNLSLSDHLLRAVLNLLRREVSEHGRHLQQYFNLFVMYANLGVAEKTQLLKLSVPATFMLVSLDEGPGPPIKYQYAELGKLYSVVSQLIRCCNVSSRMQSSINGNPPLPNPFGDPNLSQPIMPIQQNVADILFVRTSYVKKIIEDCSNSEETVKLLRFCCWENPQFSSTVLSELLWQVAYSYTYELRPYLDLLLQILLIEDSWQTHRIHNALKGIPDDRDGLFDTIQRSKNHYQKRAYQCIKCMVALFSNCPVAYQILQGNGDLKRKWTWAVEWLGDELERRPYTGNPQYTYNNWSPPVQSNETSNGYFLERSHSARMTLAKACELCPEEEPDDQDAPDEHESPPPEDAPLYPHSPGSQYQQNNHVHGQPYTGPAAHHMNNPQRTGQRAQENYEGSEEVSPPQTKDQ

IC50 [1, 6] [nM] | IC50 [1, 7] [nM] | KS [2] [µM] | VMAX RFU/min [2] [RFU/min] | α [2] | β [2] | Ki [2, 8] [nM] | Ki [2, 9] [nM] | IC50 Ratio WP1130/Compound 7A ([5]; BT-549) | IC50 ([5]; BT-549, breast ductal carcinoma) [nM] | IC50 ([5]; Homo sapiens, BT-549, BT-549, breast ductal carcinoma) [nM] | SMILES | ability to induce the degradation of Mcl-1 on addition of MG132 ([3]; 10 μM MG132 one hour before compound) | reduction of Mcl-1 ([3]; Compound 5A for 24 hrs (Lane 3)) | enhancement in ABT737's potency / sensitivity of cells to ABT737 [4] [fold] | decrease of normalized level of Mcl-1 ([3]; 24-hour treatment, concentration from 0 to 33 μm) [%]
30 | 30 | 1.2 | 335 | 2.3 | 0.78 | 6.7 | 24 | – | – | – | CN1CCOc2ccc(cc2)C(=O)NCc2cccc(c2)C(=O)N[C@@H](CC(C)(C)C)C(=O)Nc2ccc(cc2)CCN(C)C(=O)CC(C)(C)CC1=O [Compound 5A] | blocked | about 50% | 5 | –
11 | 11 | 1.87 | 589 | 1.85 | 0.72 | 9.4 | 10.3 | 27.0 | 199 | 200 | CN1CCOc2ccc(cc2)C(=O)NCc2ccc(F)c(c2)C(=O)N[C@@H](CC(C)(C)C)C(=O)Nc2ccc(cc2)CCN(C)C(=O)CC(C)(C)CC1=O [Compound 7A] | – | – | – | 50
